Test results taken from patent EP4559919A1, “TRICYCLIC-CONTAINING MACROCYCLIC COMPOUND AND USE THEREOF” (Medshine Discovery Inc., priority 2022, dated 2024).

Key:
[1] = molecular target: T1, ALK(G1202R/L1196M) (Homo sapiens, UniProt Q9UM73, G1202R/L1196M); test: In vitro kinase inhibitory activity assay, Experimental method 2 (ADP-Glo); type: biochemical
T1 construct: purchased Carna
Experimental: (§1) The kinase inhibitory activity assays of the compounds against ALK, ALK^L1196M, ALK^G1202R, ALK^G1202R/L1196M, ROS1, and TRKB were conducted at Wuhan Heyan Biotechnology Co., Ltd. or Hefei PreceDo Biotechnology Co., Ltd.
(§2) Experimental materials: ALK (G1202R/L1196M) Active and TRKB were purchased from Carna; IGF1 was purchased from GenScript; PolyE4Y1 was purchased from SIGMA; ADP-Glo™ Reagent was purchased from Promega; ATP was purchased from Promega; Kinase Detection Reagent was purchased from Promega; microplate reader ( PerkinElmer).
Reaction system: ALK(G1202R/L1196M) reaction concentration 8.63 nM, ATP concentration 5.0 µM, substrate IGF1 concentration 0.2 µg/µL. ALK(G1202R/L1196M) kinase buffer was 40 mM Tris-HCl (pH 7.5) + 20 mM magnesium chloride + 0.1 mg/mL BSA + 50 µM DTT.
(§3) ALK(G1202R/L1196M) and TRKB detection method: 2 µL of kinase and 1 µL of compound were added to a 384-well plate; 2 µL of substrate/ATP mixture was added and incubated at room temperature in the dark for 60 minutes; 5 µL of ADP-Glo™ reagent was added and incubated at room temperature for 40 minutes; 10 µL of kinase detection reagent was added and incubated at room temperature for 30 minutes; the plate was read on a microplate reader, and luminescence was recorded (integration time set to 0.5 seconds).
(§4) The IC50 value could then be derived by performing a curve fit using a four-parameter logistic model (obtained using the "log(inhibitor) vs. response -- Variable slope" mode in GraphPad Prism).

[2] = molecular target: T2, TRKB (Homo sapiens, UniProt Q16620); test: as above; type: biochemical
T2 construct: purchased Carna
T2 sequence (Q16620 32-822): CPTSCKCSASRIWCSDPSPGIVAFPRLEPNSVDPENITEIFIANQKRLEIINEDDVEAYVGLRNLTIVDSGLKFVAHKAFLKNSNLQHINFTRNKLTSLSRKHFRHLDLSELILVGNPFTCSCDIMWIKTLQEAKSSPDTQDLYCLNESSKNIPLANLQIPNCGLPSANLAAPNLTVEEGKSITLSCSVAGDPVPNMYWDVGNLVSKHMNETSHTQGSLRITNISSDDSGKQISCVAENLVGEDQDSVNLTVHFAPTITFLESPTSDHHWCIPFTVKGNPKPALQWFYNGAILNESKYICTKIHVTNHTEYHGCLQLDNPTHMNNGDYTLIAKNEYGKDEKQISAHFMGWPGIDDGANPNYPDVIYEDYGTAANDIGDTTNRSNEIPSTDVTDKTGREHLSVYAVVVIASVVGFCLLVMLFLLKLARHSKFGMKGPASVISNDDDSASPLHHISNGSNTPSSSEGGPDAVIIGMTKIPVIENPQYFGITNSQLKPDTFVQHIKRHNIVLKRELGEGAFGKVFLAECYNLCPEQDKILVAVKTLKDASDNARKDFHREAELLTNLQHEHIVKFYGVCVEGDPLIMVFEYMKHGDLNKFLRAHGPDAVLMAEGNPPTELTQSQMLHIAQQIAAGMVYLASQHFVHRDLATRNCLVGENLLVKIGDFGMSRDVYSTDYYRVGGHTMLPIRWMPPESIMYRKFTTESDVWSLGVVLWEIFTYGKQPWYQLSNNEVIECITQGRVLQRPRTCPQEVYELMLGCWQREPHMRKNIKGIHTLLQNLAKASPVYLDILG
Experimental: as §1, §2
TRKB reaction concentration 4.47 nM, ATP concentration 5.0 µM, substrate PolyE4Y1 concentration 0.2 µg/µL. TRKB kinase buffer was 40 mM Tris-HCl (pH 7.5) + 20 mM magnesium chloride + 2.5 mM manganese chloride + 0.1mg/mL BSA+ 50 µM DTT.
as §3, §4

[3] = molecular target: T1, ALK(G1202R/L1196M); test: In vitro kinase inhibitory activity assay, Experimental method 1 (ADP-Glo); type: biochemical; conditions: final ATP 50 µM, read-out: Kinase half maximal inhibitory concentration IC50 ALK^G1202R/L1196M
Experimental: as §1
(§5) Experimental materials: ALK Active, ALK(L1196M) Active, ALK(G1202R) Active, and ALK(G1202R/L1196M) Active were purchased from Carna; SRC Substrate was purchased from SignalChem; IGF1R tide was purchased from SignalChem; ADP-Glo Kinase Assay was purchased from Promega; Kinase assay buffer III was purchased from SignalChem; and Nivo multimode plate reader (PerkinElmer).
(§6) Each concentration of the compounds was further diluted 20-fold using 1X kinase buffer to prepare compound working solutions containing 5% DMSO. 1 µL of each concentration gradient working solution was added to a microplate, with duplicate wells set for each concentration. 2 µL of ALK enzyme (15 ng per well) and 2 µL of a mixture of substrate and ATP (25 µM ATP, 0.5 µg/µL SRC Substrate) were added to the microplate. […] The reaction system was placed at 25°C for 1 hour. After the reaction, 5 µL of ADP-Glo reagent was added to each well and reacted at 25°C for another 40 minutes. After the reaction, 10 µL of kinase detection reagent was added to each well and reacted at 25°C for 30 minutes. Chemiluminescence was then measured using the PerkinElmer Nivo multimode plate reader with an integration time of 0.5 seconds.
ALK (G1202R/L1196M) kinase inhibition assay method: The preparation method for the working solution of the test compound was the same as for the ALK kinase. […] The subsequent steps were the same as for ALK kinase.
as §4

[4] = molecular target: T3, ALK(G1202R) (Homo sapiens, UniProt Q9UM73, G1202R); test: as above; type: biochemical; conditions: final ATP 50 µM, read-out: Kinase half maximal inhibitory concentration IC50 ALK^G1202R
T3 construct: purchased Carna
T3 sequence (Q9UM73 19-1620 G1202R): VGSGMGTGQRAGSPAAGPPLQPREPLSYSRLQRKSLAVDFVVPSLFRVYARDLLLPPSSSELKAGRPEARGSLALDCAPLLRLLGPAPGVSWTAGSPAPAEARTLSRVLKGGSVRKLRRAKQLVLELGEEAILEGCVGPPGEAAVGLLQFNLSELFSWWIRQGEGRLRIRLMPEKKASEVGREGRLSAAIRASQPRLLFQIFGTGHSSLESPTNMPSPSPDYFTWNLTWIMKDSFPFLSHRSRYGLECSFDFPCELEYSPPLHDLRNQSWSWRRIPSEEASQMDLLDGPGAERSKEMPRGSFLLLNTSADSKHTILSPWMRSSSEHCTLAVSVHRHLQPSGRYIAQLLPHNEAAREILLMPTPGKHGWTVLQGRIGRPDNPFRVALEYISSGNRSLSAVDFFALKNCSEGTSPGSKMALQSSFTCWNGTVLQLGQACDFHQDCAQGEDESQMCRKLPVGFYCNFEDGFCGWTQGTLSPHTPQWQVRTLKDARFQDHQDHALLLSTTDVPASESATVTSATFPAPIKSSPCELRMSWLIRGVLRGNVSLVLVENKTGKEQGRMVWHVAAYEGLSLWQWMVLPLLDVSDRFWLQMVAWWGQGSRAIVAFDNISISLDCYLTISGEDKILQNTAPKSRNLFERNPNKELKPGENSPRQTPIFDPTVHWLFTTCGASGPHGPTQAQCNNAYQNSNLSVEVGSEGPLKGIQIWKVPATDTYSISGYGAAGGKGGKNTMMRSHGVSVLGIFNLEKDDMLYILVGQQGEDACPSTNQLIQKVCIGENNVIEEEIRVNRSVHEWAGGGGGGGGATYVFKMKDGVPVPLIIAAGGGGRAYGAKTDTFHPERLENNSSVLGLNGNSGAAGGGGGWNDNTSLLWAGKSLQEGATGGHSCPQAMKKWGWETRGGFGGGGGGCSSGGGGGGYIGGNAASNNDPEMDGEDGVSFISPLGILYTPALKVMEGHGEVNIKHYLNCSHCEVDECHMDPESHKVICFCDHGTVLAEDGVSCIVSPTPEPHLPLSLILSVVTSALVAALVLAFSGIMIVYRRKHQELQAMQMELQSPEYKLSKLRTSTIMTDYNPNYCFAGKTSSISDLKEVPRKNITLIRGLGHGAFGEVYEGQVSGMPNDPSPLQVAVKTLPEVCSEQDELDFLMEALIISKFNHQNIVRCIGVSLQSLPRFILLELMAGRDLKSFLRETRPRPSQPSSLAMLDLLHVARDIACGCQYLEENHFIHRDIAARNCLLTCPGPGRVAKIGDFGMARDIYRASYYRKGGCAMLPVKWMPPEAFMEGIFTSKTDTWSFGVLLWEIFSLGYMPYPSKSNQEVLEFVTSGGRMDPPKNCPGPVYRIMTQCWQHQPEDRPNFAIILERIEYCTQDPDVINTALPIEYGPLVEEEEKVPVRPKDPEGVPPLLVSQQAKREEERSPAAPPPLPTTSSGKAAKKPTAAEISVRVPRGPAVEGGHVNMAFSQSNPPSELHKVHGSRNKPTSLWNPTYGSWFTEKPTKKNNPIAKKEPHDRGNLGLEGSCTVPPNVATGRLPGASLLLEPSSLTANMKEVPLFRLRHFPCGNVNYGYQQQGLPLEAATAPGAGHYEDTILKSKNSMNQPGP
Experimental: as §1, §5, §6
ALK (G1202R) kinase inhibition assay method: The preparation method for the working solution of the test compound was the same as for the ALK kinase. […] The subsequent steps were the same as for ALK kinase.
as §4

[5] = test system: Ba/F3-EML4-ALK-G1202R/L1196M; test: Anti-proliferative activity test on Ba/F3 cell lines (CellTiter-Glo); type: cell-based; conditions: Ba/F3 EML4-ALK-G1202R-L1196M; 72 hours; read-out: Half maximal inhibitory concentration IC50 for cells Ba/F3-EML4-ALK-G1202R/L1196 M
Experimental: (§7) • (1) Cell culture: The cell lines were cultured in an incubator at 37°C with 5% CO2. Regular passaging was performed, and cells in the logarithmic growth phase were selected for plating; • (2) Preparation of compound storage plate: The test compounds were prepared into a 10 mM solution with DMSO (Stock Con.); The compounds were then prepared into a 1 mM solution with DMSO (Work Con.); 1 µL of the stock solution was mixed with 9 µL of DMSO to prepare a 10 µL work solution. • (3) Preparation of 1000× compound storage plate (tube): The compounds were 3-fold serially diluted from […] to the lowest concentration, for a total of 8 concentrations; • (4) Preparation of 20× compound working solution: 98 µL of cell culture medium was added to a flat-bottomed 96-well transparent drug plate. From the 1000× compound storage plate, 2 µL of the compound was pipetted into the cell culture medium in the 96-well transparent drug plate. In the solvent control, 2 µL of DMSO was added. After the compound or DMSO was added, the mixture was homogenized using a pipette. • (5) Cells were stained with trypan blue and viable cells were counted to ensure a cell viability of 90% or more. The cell concentration was adjusted to an appropriate concentration; • (6) 95 µL of cell suspension (2000 cells/well) was added to each well of the compound assay cell plate, and cell-free culture medium containing 0.1% DMSO was added to the Min control wells; • (7) Administration in the compound assay cell plate: 5 µL of 20× compound working solution was added to the cell culture plate, 5 µL of DMSO-cell culture medium mixture was added to the Max control wells, and the final concentration of DMSO was 0.1%; • (8) The culture plate was then incubated in an incubator at 37°C with 5% CO2 for 72 hours; • (9) The following operations were conducted in accordance with the instructions of the Promega CellTiter-Glo Luminescent Cell Viability Assay Kit (Promega-G7573): CellTiter-Glo buffer was thawed and brought to room temperature; CellTiter-Glo substrate was brought to room temperature; CellTiter-Glo buffer was added to a bottle of CellTiter-Glo substrate to dissolve the substrate, thereby preparing CellTiter-Glo working solution; The mixture was slowly vortexed and shaken to be fully dissolved; The cell culture plate was removed and allowed to equilibrate to room temperature for 10 minutes; 50 µL (equal to half the volume of cell culture medium in each well) of CellTiter-Glo working solution was added to each well; The culture plate was shaken on an orbital shaker for 2 minutes to induce cell lysis; The plate was then left at room temperature for 10 minutes to stabilize the luminescent signal; The luminescent signal was detected using a SpectraMax Paradigm plate reader; Cell viability assay was conducted using CellTiter-Glo luminescence method.
(§8) Data analysis: The corresponding […] value (RLU) for each well was obtained from SpectraMax Paradigm readings. […] The inhibition rates corresponding to compounds at different concentrations were calculated in Excel, and the inhibition rate curves were plotted using GraphPad Prism software to calculate relevant parameters, including the maximum and minimum inhibition rates of the cells and the IC50 value.

[6] = test system: Ba/F3-TEL-TRKB; test: as above; type: cell-based; conditions: Mus musculus, BaF3; 72 hours; read-out: Half maximal inhibitory concentration IC50 for cells Ba/F3-TEL-TRKB
Experimental: as §7, §8

[7] = molecular target: T2, TRKB; test: In vitro kinase inhibitory activity assay, Experimental method 1 (ADP-Glo); type: biochemical; conditions: read-out: Kinase half maximal inhibitory concentration IC50 TRKB
Experimental: as §1, §5, §6
TRKB kinase inhibition assay method: The preparation method for the working solution of the test compound was the same as for the ALK kinase. 2 µL of TRKB (0.5 ng per well) and 4 µL of a mixture of substrate and ATP (5 µM ATP, 0.5 µM SRC Substrate) were added to the microplate. […] The subsequent steps were the same as for ALK kinase.
as §4

[8] = Cell permeability test, MDCKII-MDR1 monolayer; type: in vitro ADME; conditions: dog, MDCK-MDR1, pH 7.4
Experimental: The permeability and efflux ratio of the test compounds were evaluated using the MDCKII-MDR1 monolayer cell test system to determine the potential of the compounds to cross the blood-brain barrier and to be effluxed by the P-gp transporter.
MDCKII-MDR1 cells (from the Netherlands Cancer Institute) were seeded into a 96-well cell plate (from Corning) at a cell density of 2.5 × 10^5 cells/mL and cultured for 7 days to form a confluent monolayer.
The apparent permeability coefficient (Papp, cm/s) was calculated using the following formula: Papp = (dCr / dt) × Vr /(A × C0). Herein, dCr/dt is the cumulative concentration of the compound at the receiving end per unit time (µM/s); Vr is the volume of the solution at the receiving end (the volumes of the solution at the apical and basal sides are 0.075 mL and 0.250 mL, respectively); A is the relative surface area of the cell monolayer (0.0804 cm^2); C0 is the initial concentration (nM) of the test compound at the dosing end or the peak area ratio of the control compound. The efflux ratio was calculated using the following formula: ER = Papp(BA) / Papp(AB). The recovery rate was calculated using the following formula: % Recovery = 100 × [(Vr × Cr)+(Vd × Cd)] /(Vd × C0). Herein, C0 is the initial concentration of the test compound at the dosing end (nM) or the peak area ratio of the control compound; Vd is the volume at the dosing end (0.075 mL for the apical side and 0.250 mL for the basal side); Cd and Cr are the final concentrations (nM) of the test compound at the dosing end and the receiving end or the peak area ratios of the control compound, respectively.

[9] = Experimental method 2, ATP 5.0 µM, substrate IGF1, read-out: Kinase half maximal inhibitory concentration IC50 ALK^G1202R/L1196M
[10] = Experimental method 2, ATP 5.0 µM, substrate PolyE4Y1, read-out: Kinase half maximal inhibitory concentration IC50 TRKB

T1 sequence (Q9UM73 19-1620 L1196M/G1202R): as the sequence (Q9UM73 19-1620 G1202R) above, with L1178M counted along it

Compound: CC1(C)COc2ccc(F)cc2CN2c3nc4c(cc3OC[C@H]2C(F)F)ncn4C(=O)N1 [Compound 007]
- IC50 [1]: 1 nM
- IC50 [2]: 2.6 nM

Compound: CON=C1NCC2(CC2)COc2ccc(F)cc2CN2c3nc4c1cnn4cc3OC[C@H]2C(F)F [Compound 011]
- IC50 [1, 9]: 1.7 nM
- IC50 [2, 10]: 3.4 nM

Compound: COCCON=C1NC(C)(C)COc2ccc(F)cc2CN2c3nc4c1cnn4cc3OC[C@H]2C(F)F [Compound 003]
- IC50 [3]: 11.3 nM
- IC50 [4]: 12.2 nM

Compound: O=C1NC2(CCC2)COc2ccc(F)cc2CN2c3nc4c1c(Br)nn4cc3OC[C@H]2C(F)F [Compound 021]
- IC50 [1, 9]: 4 nM
- IC50 [2, 10]: 7 nM

Compound: O=C1NC2(CC2)COc2ccc(F)cc2CN2c3nc4c(cc3OC[C@H]2C(F)F)ncn41 [Compound 014]
- IC50 [1, 9]: 0.4 nM
- IC50 [2, 10]: 0.7 nM
- IC50 [5]: 5.3 nM
- IC50 [6]: 0.2 nM

Compound: CC1(C)COc2ncc(F)cc2CN2c3nc4c(cnn4cc3OC[C@H]2C(F)F)C(=S)N1 [Compound 004]
- IC50 [3]: 1.3 nM
- IC50 [7]: 2.4 nM

Compound: CC1(C)COc2ccc(F)cc2CN2c3nc4c(c(C#CC5CC5)nn4cc3OC[C@H]2C(F)F)C(=O)N1 [Compound 020]
- IC50 [1, 9]: 1.1 nM
- IC50 [2, 10]: 10 nM

Compound: CCON=C1NC(C)(C)COc2ccc(F)cc2CN2c3nc4c1cnn4cc3OC[C@H]2C(F)F [Compound 002]
- IC50 [3]: 14.6 nM
- IC50 [4]: 27.8 nM

Compound: CC1(C)COc2ccc(F)cc2CN2c3nc4c(c(C#N)nn4cc3OC[C@H]2C(F)F)C(=O)N1 [Compound 010]
- IC50 [1, 9]: 1.5 nM
- IC50 [2, 10]: 4.4 nM

Compound: CC1(C)COc2ccc(F)cc2CN2c3nc4c(c(Br)nn4cc3OC[C@H]2C(F)F)C(=O)N1 [Compound 009]
- IC50 [1, 9]: 0.8 nM
- IC50 [2, 10]: 2 nM
- IC50 [5]: 7.3 nM
- IC50 [6]: 7.8 nM

Compound: CC1(C)COc2ncc(F)cc2CN2c3nc4c(cc3OC[C@H]2C(F)F)ncn4C(=O)N1 [Compound 013]
- efflux ratio at 2.5 h, 2 µM [8]: 0.77
- Papp A→B at 2.5 h, 2 µM ([8]; 2 µM, 150 minutes, pH 7.40): 11.8 ×10⁻⁶ cm/s
- Papp B→A at 2.5 h, 2 µM ([8]; 2 µM, 150 minutes, pH 7.40): 9.02 ×10⁻⁶ cm/s
- IC50 [5]: 1.2 nM
- IC50 [6]: 0.3 nM

Compound: Cc1nn2cc3c4nc2c1C(=O)NC(C)(C)COc1ccc(F)cc1CN4[C@H](C(F)F)CO3 [Compound 006]
- IC50 [1, 9]: 0.6 nM
- IC50 [2, 10]: 1.2 nM

Compound: CC1(C)COc2ccc(F)cc2CN2c3nc4c(c(C5CC5)nn4cc3OC[C@H]2C(F)F)C(=O)N1 [Compound 017]
- IC50 [1, 9]: 15.3 nM
- IC50 [2, 10]: 31.3 nM

Compound: Cc1nn2cc3c4nc2c1C(=O)NC(C)(C)COc1ncc(F)cc1CN4[C@H](C(F)F)CO3 [Compound 015]
- IC50 [1, 9]: 0.6 nM
- IC50 [2, 10]: 1.1 nM

Compound: CC1(C)COc2ccc(F)cc2CN2c3nc4c(cc3OC[C@H]2C(F)F)ncn4C(=S)N1 [Compound 008]
- IC50 [1, 9]: 1.7 nM
- IC50 [2, 10]: 7.8 nM

Compound: O=C1N[C@H]2C[C@H](C2)Oc2ccc(F)cc2CN2c3nc4c1c(Br)nn4cc3OC[C@H]2C(F)F [Compound 023]
- IC50 [1, 9]: 1.2 nM
- IC50 [2, 10]: 1.5 nM
- IC50 [5]: 10.8 nM
- IC50 [6]: 1.8 nM

Compound: Cc1nc2cc3c4nc2n1C(=O)NC(C)(C)COc1ccc(F)cc1CN4[C@H](C(F)F)CO3 [Compound 012]
- IC50 [1]: 1.5 nM
- IC50 [2]: 2.9 nM
- IC50 [5]: 7 nM
- IC50 [6]: 5.2 nM
